Here are results for three substances from US20250302862A1, “SMALL RNA DRUG FOR INHIBITING ACTIVITY OF CANCER CELLS” (Institute of Basic Medical Sciences Chinese Academy of …, priority 2022, published 2025).

Series [1] has as its system primary lung cancer Kras^LSL-G12Dp53^fl/fl (KP) mouse model. Description: Survival of mice with primary lung cancer. The format is in vivo. To be noted: 10 nmol sRNA in sphingosine(d18:1) delivery system daily by gavage until death, vs NC group. From the text:
The mouse model of primary lung cancer was Kras^LSL-G12Dp53^fl/fl (KP).
Mice were weighed and assigned to the negative control group (NC group) and HQi-sRNA-2 group randomly. The NC group was the negative control, in which a sphingosine(d18:1)-NC-sRNA herbal medicine delivery system was constructed from NC-sRNA. The HQi-sRNA-2 group was the experimental group, in which a sphingosine(d18:1)-HQi-sRNA-2 herbal medicine delivery system was constructed from HQi-sRNA-2 and sphingosine(d18:1).
The herbal medicine delivery system was constructed by heating and mixing 10 nmol of sRNA, 100 ug of sphingosine(d18:1) and 300 ul of sterile enzyme-free water in a water bath at 90° C. for 15 minutes.
Each mouse with a uniform body weight was dosed by gavage. Each mouse was given 10 nmol of HQi-sRNA-2 mimic daily by gavage until death of the mouse.
The survival time of each mouse was recorded, the survival curve was plotted, and statistical analysis was performed.
Mice were weighed and assigned to the negative control group (NC group), MDM-sRNA-39 group and MDM-sRNA-163 group randomly. The NC group was the negative control, in which a sphingosine(d18:1)-NC-sRNA herbal medicine delivery system was constructed from NC-sRNA. The MDM-sRNA-39 group was an experimental group, in which a sphingosine(d18:1)-MDM-sRNA-39 herbal medicine delivery system was constructed from MDM-sRNA-39. The MDM-sRNA-163 group was an experimental group, in which a sphingosine(d18:1)-MDM-sRNA-163 herbal medicine delivery system was constructed from MDM-sRNA-163.

Series [2] relates to prostate cancer PC-3 cells. Description: Apoptosis detection (Annexin V / PI). The format is cell-based, human. Conditions: 100 nmol/L, 48 h. As to the method:
1) PC-3 cells with a cell density of more than 90% in 10 cm^2 dishes were plated in 12-well plates according to the cell growth rate, and transfected after 12 h, and the groups were divided as follows: • blank control group (4 wells): 200 uL of opti-MEM per well • negative control group (NC group) and experimental group (3 wells each): the system of each well was as follows • A. 100 uL of opti-MEM and 2 uL of iMax were mixed well for 5 min • B. 100 uL of opti-MEM and 5 uL of small RNA (final concentration 100 nmol/L) were mixed well • C. solution A and solution B were mixed well and let stand for 15 min, and then was added to each well at a 200 uL system • Note: 100 uL of nuclease-free water was added to 2 nmol of small RNA dry powder for dissolution at a storage concentration of 20 umol/L
The supernatant and cells were collected after 48 h and washed twice with pre-chilled PBS. The 4 tubes of cells in the blank control group were added respectively with: (1) 200 uL of 1× binding buffer; (2) 200 uL of 1× binding buffer and 5 uL of Annexin V stain; (3) 200 uL of 1× binding buffer and 5 uL of PI stain; (4) 200 uL of 1× binding buffer, 5 uL of Annexin V stain and 5 uL of PI stain. […] The live cell population and the position of quadrant gate were selected according to the blank control group, and then the apoptosis of the NC group and the experimental group was detected.

The subject of series [3] is breast cancer MDA-MB-231 cells. As to the kind of experiment: Concentration-dependent proliferation inhibition, MTS. In kind it is cell-based. Conditions: gradient 0.01-100 noml/L, MTS after 48 h. As to the method: (§1) 1) Breast cancer MCF7 cells, breast cancer MDA-MB-231 cells, gastric cancer AGS cells, pancreatic cancer HS766T cells, pancreatic cancer ASPC-1 cells, and prostate cancer PC-3 cells with a cell density of more than 90% in 10 cm^2 plates were plated in 96-well according to the cell growth rate. Transfection was performed after 12 h, and the groups (3 wells per group) were divided as follows: • blank control group: 20 uL of opti-MEM • negative control group (NC group) and experimental group: • A. 10 uL of opti-MEM and 0.2 uL of iMax were mixed well for 5 min • B. 10 uL of opti-MEM and small RNA were mixed well (the concentration gradient of experimental group was set as: 0.01 noml/L, 0.03 noml/L, 0.1 noml/L, 0.39 noml/L, 0.78 noml/L, 1.56 noml/L, 3.125 noml/L, 6.25 noml/L, 12.5 noml/L, 25 noml/L, 50 noml/L, 100 noml/L; the final concentration of sRNA in NC group was 100 noml/L) • C. solution A and solution B were mixed well and let stand for 15 min, and then was added at a 20 uL system • Note: 100 uL of nuclease-free water was added to 2 nmol of small RNA dry powder for dissolution at a storage concentration of 20 umol/L
(§2) 2) Detection of cell viability: MTS detection was performed after 48 h.
Formulation of MTS detection solution was as follows: opti-MEM:MTS A solution:MTS B solution=100:20:1. […] Absorbance values at wavelengths of 490 nm and 630 nm were measured in a microplate reader. […]

For series [4], the system named is breast cancer MCF7 cells. The series is described as above. The format is cell-based, human. Conditions: gradient 0.01-100 noml/L, MTS after 48 h. The procedure: as §1, §2
(§3) Formulation of MTS detection solution was as follows: opti-MEM:MTS A solution:MTS B solution=100:20:1. After removing the supernatant, 100 uL of MTS detection solution was added to each well and incubated for 0.5-2 h. Absorbance values at wavelengths of 490 nm and 630 nm were measured in a microplate reader.
as §1, with “dishes” for “plates”, “96-well plates” for “96-well”

Series [5] deals with pancreatic cancer HS766T cells. The series is described as above. In kind it is cell-based, human. To be noted: gradient 0.01-100 noml/L, MTS after 48 h. As to the method:
as §1, §2, §3
as §1, with “dishes” for “plates”, “96-well plates” for “96-well”

Series [6] relates to gastric cancer AGS cells. The description is as above. To be noted: gradient 0.01-100 noml/L, MTS after 48 h. In kind it is cell-based, human. The procedure: as §1, §2, §3
as §1, with “dishes” for “plates”, “96-well plates” for “96-well”

Series [7] has as its system pancreatic cancer ASPC-1 cells. The series is described as above. To be noted: gradient 0.01-100 noml/L, MTS after 48 h. The format is cell-based, human. The procedure: as §1, §2, §3
as §1, with “dishes” for “plates”, “96-well plates” for “96-well”

For “HQi-sRNA-2: small RNA derived from Scutellaria baicalensis, sequence AUGGUUCGAUUCCGGAGAGGG (listed as RNA, chemistry not given here)”, the “survival of mice with primary lung cancer” value (shortened to “survival of mice”) in series [1] is “significantly prolonged”.

As for “MDM-sRNA-39: small RNA derived from Maytenus hookeri, sequence GGGAUUGUAGUUCAAUUGGUCAGAGCACC (listed as RNA, chemistry not given here)”, the apoptosis entry in series [2] is reported as “promotes”. The “survival of mice” value in series [1] was “significantly prolonged”. The “proliferation-inhibiting function (cell activity, MTS)” value in series [3], in series [4], in series [5], in series [6] and in series [7] was “concentration-dependent” each time.

With “MDM-sRNA-163: small RNA derived from Maytenus hookeri, sequence UGACUCUAGUCCGACUUUGUGAAAUGACU (listed as RNA, chemistry not given here)”, the apoptosis result in series [2] is “promotes”. The “survival of mice” value in series [1] was “significantly prolonged”. Besides, the “proliferation-inhibiting function (cell activity, MTS)” value in series [3], in series [4], in series [5], in series [6] and in series [7] was “concentration-dependent” throughout.
